Data on one compound can be found in the NIST ThermoML archive (doi:10.1021/acs.jced.8b01209).

The conditions of series [1]: Crystal; DSC.
A short description of series [2]: Molar enthalpy of transition or fusion. As to conditions: Crystal; DSC.

Numbers after ± are expanded uncertainties.

`Cc1ccc2cc(C)ccc2c1` [2,6-dimethylnaphthalene]: the Triple point temperature in series [1] was 384.41 ± 1.2 K. Moreover, the “Molar enthalpy of transition or fusion” value in series [2] turned out to be 5.95 ± 0.136 kcal/mol.
